Source: patent publication US20040203034A1 (The University of Chicago, priority 2003, published 2004)
Read-outs that look alike come from different tables or passages of the source.

Tests used:
UGT1A1 = biological target: T1, UGT1A1 (Homo sapiens, UniProt P22309); assay: SN-38 glucuronidation assay in human liver microsomes; type: in vitro ADME; details: for SN-38 glucuronidation rate: Caucasians
T1 construct: microsomes were isolated following differential centrifugation methods; tissue Liver Tissue Procurement and Distribution System; Liver Core Bank Facility (St. Jude Children's Research Hospital); host or cells: normal human liver microsomes (n=83 donors)
T1 sequence (P22309 26-533): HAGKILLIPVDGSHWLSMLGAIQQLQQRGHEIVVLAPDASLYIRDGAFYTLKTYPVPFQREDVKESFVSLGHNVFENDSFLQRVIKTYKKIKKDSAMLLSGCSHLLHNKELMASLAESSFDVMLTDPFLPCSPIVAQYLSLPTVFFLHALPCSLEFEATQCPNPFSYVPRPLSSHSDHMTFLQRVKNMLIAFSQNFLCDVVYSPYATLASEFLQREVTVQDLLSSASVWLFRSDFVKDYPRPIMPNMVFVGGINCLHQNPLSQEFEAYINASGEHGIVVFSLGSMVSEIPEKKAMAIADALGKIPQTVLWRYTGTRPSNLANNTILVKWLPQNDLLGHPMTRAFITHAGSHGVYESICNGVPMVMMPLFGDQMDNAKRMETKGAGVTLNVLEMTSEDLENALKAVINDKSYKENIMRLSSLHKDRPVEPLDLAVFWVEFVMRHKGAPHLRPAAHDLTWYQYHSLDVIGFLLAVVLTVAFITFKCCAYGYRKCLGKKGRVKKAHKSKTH
Excerpt: Normal human livers (n=83) were mainly obtained from Liver Tissue Procurement and Distribution System (National Institutes of Diabetes and Digestive and Kidney Diseases, Minneapolis, Minn.). DNA was isolated by using Qiagen RNA/DNA Maxi Kit (Qiagen Inc., Valencia, Calif., USA), and microsomes were isolated following differential centrifugation methods (Purba et al., 1987). DNA and microsomes were provided by the Liver Core Bank Facility (St. Jude Children's Research Hospital) of the Pharmacogenetics of Anticancer Agents Research (PAAR) Group. In order to identify livers in which enzyme degradation occurred, liver samples consistently comprised in the 10th percentile of UGT1A1, UGT1A9 and UGT2B7 activities were sought. UGT1A9 and UGT2B7 activities were measured using specific probes (data not shown) (Ramirez et al., 2002 and Innocenti, et al., 2001). Out of eight samples within the 10th percentile of UGT1A1, only one sample was comprised within the 10th percentile of activities of the other two enzyme activities.
Samples were phenotyped by using SN-38 as a substrate for UGT1A1. The incubation mixture consisted of 5 μmol SN-38, 10 mmol MgCl2, 1 mg/ml microsomes, 0.025 mol Tris-HCl (pH 7.4) and 5 mmol UDP-GA. Samples were incubated for 30 min at 37° C. The reaction was stopped by the addition of methanol. These conditions were selected after previous optimization of the enzyme reaction (Iyer et al., 1998). Camptothecin (75 ng) was used as an internal standard. SN-38 glucuronidation was measured by HPLC (Hitachi Instruments Inc., San Jose, Calif., USA) with fluorescence detection (λ excitation=355 nm, λ emission=515 nm). A μBondapak™ C18 column (3.9×300 mm, 10 μm; Waters Corp., Milford, Mass., USA) and μBondapak™ C18 guardpak (Waters Corp.) were used. A mobile phase of […] acetonitrile/tetra-hydrofuran/0.9 mmol sodium heptanedfonic acid in 50 mmol potassium dihydrogen phosphate (pH 4) was used during the first 7 min of the run. From 7.1-25 min, the eluent consisted of 30/70 acetonitrile/5 mmol sodium heptanesulfonic acid in 50 mmol potassium dihydrogen phosphate (pH 4). The flow rate was 0.9 ml/min. […] The intra-assay variability was determined by performing 10 incubations on the same day using a pool of human liver microsomes. The inter-assay variability was evaluated by incubating a pool of human liver microsomes in triplicate on three different days. […]
UGT1A1 activity was phenotyped by measuring SN-38 glucuronidation rates of each liver as the mean±SD of a single experiment performed in triplicate. […] Moreover, trend analysis and pairwise comparisons were performed in genotypes expressed as the sum of TA repeats in both chromosomes (i.e. in samples with […] (5/6, 6/6, 5/7), 13 (6/7) and […] (7/7, 6/8, 7/8) TA repeat genotypes). […]

[1] = Pharmacokinetic analysis of irinotecan and metabolites in patient plasma; type: in vivo, human; details: for SN-38 AUC, mean / SN-38^b AUC, mean: after irinotecan; for AUC: human, plasma, 350 mg/m2, Irinotecan AUC, mean
Experimental: Venous blood for pharmacokinetic analysis was collected on day 1 of cycle 1 for pharmacokinetic analysis. Samples of 7 ml were collected into green top sodium heparinized Vacutainer® tubes prior to the infusion; 30, 60, and 90 minutes during the infusion; and 10, 20, 30, 45, and 60 minutes and 1.5, 2, 4, 6, 12, and 24 hours after the infusion. Samples were centrifuged (2500 rpm, 20 min, 4° C.) and the plasma was immediately separated, transferred as two aliquots into storage tubes, frozen at −80° C. until analysis.
The glucuronidation ratio was expressed as the ratio of the SN-38G AUC over SN-38 AUC.

UGT1A isoforms = assay: In vitro TAS-103 and SN-38 glucuronidation activity in species deficient in UGT1A isoforms; type: in vitro ADME; details: Gunn rats and CN-1 patients deficient in UGT1A isoforms
Excerpt: On the other hand, while isoforms of the UGT1 family are the predominate isoforms involved in TAS-103 glucuronidation, the isoform of the UGT2 family may also participate in TAS-103 glucuronidation. Failure to glucuronidate SN-38 and TAS-103 in these instances may result specifically from the genetic defect in UGT1 gene family.

solid tumors or lymphoma = assay: Objective tumor response in patients given irinotecan; type: in vivo, human
[2] = tested on: patients with solid tumors or lymphoma
patients = details: cited from earlier work
[3] = TA indel genotype 6/6, 30 patients
[4] = TA indel genotype 6/7, 25 patients
[5] = TA indel genotype 7/7, 6 patients

CCc1c2c(nc3ccc(O)cc13)-c1cc3c(c(=O)n1C2)COC(=O)[C@]3(O)CC [SN-38, 7-ethyl-10-hydroxycamptothecin]
coefficient of variation of SN-38 glucuronidation (UGT1A1; 83 human liver microsomes): 46%
range in SN-38 glucuronidation (UGT1A1; 83 human liver microsomes): 10 fold
SN-38 glucuronidation rate (UGT1A1; I/I haplotype pairs): 2.53±0.82 SN-38G/IS
SN-38 glucuronidation rate (UGT1A1; I/II haplotype pairs): 2.06±0.74 SN-38G/IS
Glucuronidation Ratio (SN-38G AUC/SN-38 AUC), mean [1, 3]: 6.52
SN-38 AUC, mean [1, 3]: 335.9 ng·h/mL
SN-38^b AUC, mean [1, 3]: 1954.2 ng·h/mL
Glucuronidation Ratio (SN-38G AUC/SN-38 AUC), mean [1, 4]: 5.55
SN-38 AUC, mean [1, 4]: 458.4 ng·h/mL
SN-38^b AUC, mean [1, 4]: 1887.9 ng·h/mL
Glucuronidation Ratio (SN-38G AUC/SN-38 AUC), mean [1, 5]: 3.59
SN-38 AUC, mean [1, 5]: 542.0 ng·h/mL
SN-38^b AUC, mean [1, 5]: 1819.1 ng·h/mL
in vitro glucuronidation compared to healthy liver donors (UGT1A isoforms): no in vitro glucuronidation

CN(C)CCNc1nc2cc(O)ccc2c2c1C(=O)c1ccccc1-2.Cl.Cl [TAS-103, 6-[[2-(dimethylamino)ethyl]amino]-3-hydroxy-7H-indeno[2,1-c]quinoline-7-one dihydrochloride]
lower glucuronidation rate in vitro compared to healthy liver donors (UGT1A isoforms): ~80%

CCc1c2c(nc3ccc(OC(=O)N4CCC(N5CCCCC5)CC4)cc13)-c1cc3c(c(=O)n1C2)COC(=O)[C@]3(O)CC [irinotecan, 7-ethyl-10-[4-(1-piperidino)-1-piperidino]carbonyloxycamptothecin]
AUC ([1]; intravenous, TA indel genotype 6/7, 25 patients): 26100 ng·h/mL
AUC ([1]; intravenous, TA indel genotype 7/7, 6 patients): 25400 ng·h/mL
AUC ([1]; iv, TA indel genotype 6/6, 30 patients, 350 mg/m2 90 minute i.v. infusion): 24400 ng·h/mL
objective responses (solid tumors or lymphoma; 60 patients assessable for response): three objective responses
partial response, patients (solid tumors or lymphoma; colorectal and head and neck cancer, 6/7 genotype): Two patients
complete response, patients (solid tumors or lymphoma; colorectal cancer, 6/6 genotype): One colorectal cancer patient
frequency of grade 4 neutropenia ([2]; TA indel genotype 6/6 (0/30), cycle 1): 0%
frequency of grade 4 neutropenia ([2]; TA indel genotype 6/7 (3/24), cycle 1): 12.5%
frequency of grade 4 neutropenia ([2]; TA indel genotype 7/7 (3/6), cycle 1): 50%
frequency of grade 4 neutropenia ([2]; all assessable patients, cycle 1, 350 mg/m2 i.v. every 3 weeks): 9.5%
frequency of grade 3 diarrhea ([2]; all patients, cycle 1): 5%
grade 4 diarrhea ([2]; all patients, cycle 1): no instances
toxic death ([2]; neutropenia-related sepsis, 7/7 genotype, died on day 11): One toxic death
patients with grade 4 neutropenia ([2]; out of the 7 patients with total bilirubin higher than 0.7 mg/dl): 4
cases of grade 4 neutropenia ([2]; patients with pretreatment total bilirubin less than 0.6 mg/dl): No cases
patients experiencing grade 3-4 neutropenia (patients; both weekly and three-weekly regimens): 30-40%
grade 3-4 diarrhea, share of patients (patients; early single agent trials (Negoro 1991; Rothenberg 1993)): about one third
frequency of grade 3-4 diarrhea (patients; three-weekly regimen (Fuchs et al., 2003)): 19%
mortality rate (patients; three-weekly single agent regimen (Fuchs et al., 2003)): 1.6%
frequency of grade 3-4 diarrhea (patients; weekly schedule (Fuchs et al., 2003)): 36%
mortality rate (patients; weekly single agent regimen (Fuchs et al., 2003)): 5.3%
